Patent US7531482B2, “Thieno-pyrimidine compounds having fungicidal activity” (Dow AgroSciences LLC, priority 2005, dated 2009)

What was measured:
Assay type in all cases: in vivo
Erysiphe cichoracaerum = assay: Cucumber Powdery Mildew (ERYSCI) whole-plant disease control test; conditions: Erysiphe, foliar; 200 ppm applied to foliage of cucumber; inoculated one day after treatment; read-out: ERYSCI disease control
[1] = system: Magnaporthe grisea=Pyricularia oryzae; assay: whole plant or invertebrate; conditions: Pyricularia oryzae, foliar, read-out: PYRIOR disease control, 200 ppm applied to foliage of rice; inoculated one day after treatment
[2] = system: Mycosphaerella graminicola=Septoria tritici; assay: Speckled Leaf Blotch of Wheat (SEPTTR) whole-plant disease control test; conditions: Mycosphaerella, foliar, 75 ppm applied to foliage of wheat; read-out: SEPTTR disease control
Phytophthora infestans = assay: whole plant or invertebrate; conditions: Phytophthora infestans, in Solanum lycopersicum, foliar, read-out: PHYTIN disease control, 200 ppm applied to foliage of tomato; inoculated one day after treatment
Leptosphaeria nodorum = assay: Glume Blotch of Wheat (LEPTNO) whole-plant disease control test; conditions: Parastagonospora nodorum, foliar; 200 ppm applied to foliage of wheat; inoculated one day after treatment; read-out: LEPTNO disease control
Colletotricum lagenarium = assay: Cucumber Anthracnose (COLLLA) whole-plant disease control test; conditions: Cucumis sativus, foliar; 200 ppm applied to foliage of cucumber; inoculated one day after treatment; read-out: COLLLA disease control
[3] = system: Puccinia recondita tritici; assay: Leaf Rust of Wheat (PUCCRT) whole-plant disease control test; conditions: Puccinia recondita, foliar, 200 ppm applied to foliage of wheat; inoculated one day after treatment; read-out: PUCCRT disease control

Row | Structure (SMILES) | pest or weed control at 200 ppm (Erysiphe cichoracaerum) [%] | pest or weed control at 200 ppm [1] [%] | pest or weed control at 75 ppm [2] [%] | pest or weed control at 200 ppm (Phytophthora infestans) [%] | pest or weed control at 200 ppm (Leptosphaeria nodorum) [%] | pest or weed control at 200 ppm (Colletotricum lagenarium) [%] | pest or weed control at 200 ppm [3] [%]
1 | FC(F)(F)c1ccnc(Oc2ccc(CCNc3ncnc4scc(Cl)c34)cc2)c1 [Compound 12] | 80 to 100 | 80 to 100 | 50 to 79 | 50 to 79 | 80 to 100 | 50 to 79 | 80 to 100
2 | N#Cc1ccnc(Oc2ccc(CCNc3ncnc4scc(Cl)c34)cc2)c1 [Compound 13] | 80 to 100 | 80 to 100 | 50 to 79 | 50 to 79 | 80 to 100 | 50 to 79 | 80 to 100
3 | O=C(Oc1ccc(CCNc2ncnc3scc(Cl)c23)cc1)c1ccccn1 [Compound 14] | 0 to 49 | 80 to 100 | 0 to 49 | 0 to 49 | 50 to 79 | 0 to 49 | 80 to 100
4 | O=C(Oc1ccc(CCNc2ncnc3scc(Cl)c23)cc1)c1ccc(Cl)nc1 [Compound 15] | 0 to 49 | 80 to 100 | 0 to 49 | 0 to 49 | 50 to 79 | 0 to 49 | 80 to 100
5 | Clc1csc2ncnc(NCCc3ccc(Oc4ncc(Br)s4)cc3)c12 [Compound 16] | 50 to 79 | 80 to 100 | 80 to 100 | 80 to 100 | 0 to 49 | 0 to 49 | 80 to 100
6 | Clc1csc2ncnc(NCCc3ccc(Oc4ncccn4)cc3)c12 [Compound 17] | 50 to 79 | 80 to 100 | 50 to 79 | 80 to 100 | 50 to 79 | 0 to 49 | 80 to 100
7 | Clc1csc2ncnc(NCCc3ccc(Oc4ccccn4)cc3)c12 [Compound 18] | 80 to 100 | 80 to 100 | 50 to 79 | 80 to 100 | 0 to 49 | 0 to 49 | 80 to 100
8 | [O-][n+]1ccccc1Oc1ccc(CCNc2ncnc3scc(Cl)c23)cc1 [Compound 19] | 50 to 79 | 80 to 100 | 50 to 79 | 80 to 100 | 0 to 49 | 0 to 49 | 80 to 100
9 | NC(=O)c1ccc(Oc2ccc(CCNc3ncnc4scc(Cl)c34)cc2)nc1 [Compound 21] | 0 to 49 | 0 to 49 | 0 to 49 | 0 to 49 | 0 to 49 | 0 to 49 | 80 to 100
10 | N#Cc1cc[n+]([O-])c(Oc2ccc(CCNc3ncnc4scc(Cl)c34)cc2)c1 [Compound 22] | 50 to 79 | 80 to 100 | 0 to 49 | 50 to 79 | 50 to 79 | 50 to 79 | 80 to 100
11 | CCOC(=O)c1ccc(Oc2ccc(CCNc3ncnc4scc(Cl)c34)cc2)nc1 [Compound 23] | 0 to 49 | 50 to 79 | 0 to 49 | 50 to 79 | 0 to 49 | 0 to 49 | 80 to 100
12 | O=Cc1ccc(Oc2ccc(CCNc3ncnc4scc(Cl)c34)cc2)nc1 [Compound 24] | 0 to 49 | 80 to 100 | 50 to 79 | 50 to 79 | 0 to 49 | 50 to 79 | 80 to 100
13 | COc1nc(OC)nc(Oc2ccc(CCNc3ncnc4scc(Cl)c34)cc2)n1 [Compound 26] | 0 to 49 | 50 to 79 | 0 to 49 | 0 to 49 | 0 to 49 | 0 to 49 | 80 to 100
14 | FC(F)(F)c1ccnc(Oc2ccc(CCNc3ncnc4scc(Cl)c34)cc2)n1 [Compound 27] | 80 to 100 | 80 to 100 | 50 to 79 | 50 to 79 | 0 to 49 | 50 to 79 | 80 to 100
15 | N#Cc1cccnc1Oc1ccc(CCNc2ncnc3scc(Cl)c23)cc1 [Compound 28] | 0 to 49 | 50 to 79 | 50 to 79 | 0 to 49 | 50 to 79 | 50 to 79 | 80 to 100
16 | N#Cc1ncc(F)cc1Oc1ccc(CCNc2ncnc3scc(Cl)c23)cc1 [Compound 29] | 0 to 49 | 50 to 79 | 50 to 79 | 0 to 49 | 0 to 49 | 50 to 79 | 80 to 100
17 | N#Cc1ncc(Oc2ccc(CCNc3ncnc4scc(Cl)c34)cc2)cc1F [Compound 30] | 50 to 79 | 80 to 100 | 50 to 79 | 50 to 79 | 0 to 49 | 80 to 100 | 80 to 100
18 | N#Cc1cccc(Oc2ccc(CCNc3ncnc4scc(Cl)c34)cc2)n1 [Compound 32] | 80 to 100 | 80 to 100 | 50 to 79 | 50 to 79 | 0 to 49 | 50 to 79 | 80 to 100
19 | CN(C)NC(=O)c1ccc(Oc2ccc(CCNc3ncnc4scc(Cl)c34)cc2)nc1 [Compound 33, 6-{4-[2-(5-Chlorothieno[2,3-d]pyrimidin-4-ylamino)ethyl]phenoxy}nicotinic acid N′,N′-dimethylhydrazide] | 0 to 49 | 80 to 100 | 0 to 49 | 50 to 79 | 0 to 49 | 50 to 79 | 80 to 100
20 | CO/N=C\c1ccc(Oc2ccc(CCNc3ncnc4scc(Cl)c34)cc2)nc1 [Compound 34, 6-{4-[2-(5-Chlorothieno[2,3-d]pyrimidin-4-ylamino)ethyl]phenoxy}pyridine-3-carbaldehyde O-methyloxime] | 80 to 100 | 80 to 100 | 50 to 79 | 0 to 49 | 0 to 49 | 80 to 100 | 80 to 100
21 | Fc1cccc(Oc2ccc(CCNc3ncnc4scc(Cl)c34)cc2)n1 [Compound 36] | 80 to 100 | 80 to 100 | 50 to 79 | 0 to 49 | 0 to 49 | 50 to 79 | 80 to 100
22 | Clc1cccc(Oc2ccc(CCNc3ncnc4scc(Cl)c34)cc2)n1 [Compound 37] | 80 to 100 | 80 to 100 | 50 to 79 | 0 to 49 | 0 to 49 | 80 to 100 | 80 to 100
23 | Clc1csc2ncnc(NCCc3ccc(Oc4cnccn4)cc3)c12 [Compound 38] | 50 to 79 | 50 to 79 | 50 to 79 | 50 to 79 | 0 to 49 | 50 to 79 | 80 to 100
24 | CC(=O)c1ccc(Oc2ccc(CCNc3ncnc4scc(Cl)c34)cc2)nc1 [Compound 39] | 50 to 79 | 80 to 100 | 0 to 49 | 80 to 100 | 0 to 49 | 0 to 49 | 80 to 100
25 | N#Cc1ncc(Oc2ccc(CCNc3ncnc4scc(Cl)c34)cc2)cn1 [Compound 40] | 50 to 79 | 80 to 100 | 0 to 49 | 80 to 100 | 0 to 49 | 0 to 49 | 80 to 100
26 | N#Cc1ccnc(Oc2ccc(CCNc3ncnc4scc(Cl)c34)cc2)n1 [Compound 41] | 50 to 79 | 80 to 100 | 0 to 49 | 80 to 100 | 0 to 49 | 0 to 49 | 80 to 100
